Row | Structure (SMILES) | melting point [°C]
1 | O=S(=O)(c1ccccc1)N(CCCN1CC=C(c2ccccc2)CC1)c1ccccc1 | 112
2 | CNC(=O)On1cc(Cl)cn1 | 125
3 | CCOC(=O)c1cnc2nn(C)cc2c1NC(C)CC (stereo not drawn) | 132 to 134
4 | CCOC(=O)c1ncc2[nH]c3cccc(Oc4ccc(N)cc4)c3c2c1COC | 222 to 224
5 | COc1ccc2c(c1)C13CCN(CC4CC4)C(C2)C1(Cc1ccccc1)CCC1(C3)OCCO1 (stereo not drawn) | 165 to 167
6 | CC(=O)CC(=O)NCC1C(NC(=O)CC(C)=O)C(C)CC1(C)C (stereo not drawn) | 94 to 114
7 | C1=C(c2cccc3[nH]ccc23)CNCC1 | 156
8 | CC(O)c1cccc(Cl)c1Cl (stereo not drawn) | 53
9 | O=C(N[C@@H]1C=CC[C@H]1O)OCC(Cl)(Cl)Cl | 82 to 84
10 | CCSc1c(O[C@H]2CC[C@H](N)CC2)ccc2[nH]ncc12 | 157 to 158
11 | CC(C)NC(=O)NC1CCCc2sccc21 (stereo not drawn) | 223 to 226
12 | CN(c1ccccc1)S(=O)(=O)N[C@@H](Cc1ccc(NC(=O)c2c(Cl)cccc2Cl)cc1)C(=O)O | 117
13 | Cc1nnc(-c2ccc3occc3c2)o1 | 159 to 160
14 | CCOC(=O)C1=C(C=O)Nc2ccnc(OC(C)C)c2C1c1ccccc1 (stereo not drawn) | 132 to 135
15 | CN(O)C(=O)Nc1c(C(=O)c2ccccc2)[nH]c2cc(Cl)ccc12 | 208 to 214
16 | CCSc1nc(NCc2ccccc2)c2ncn(C3OC(CO)C(O)C3O)c2n1 (stereo not drawn) | 172 to 174
17 | CC(C(=O)NCc1ccc(C(C)(C)C)cc1)c1ccc(NS(C)(=O)=O)c(C(=O)NCc2ccccc2)c1 (stereo not drawn) | 79 to 81
18 | CCCCCCCCCCCCn1nnc(CCC(=O)Nc2c(OC)cc(OC)cc2OC)n1 | 86 to 88
19 | Nc1cc(Cl)c(Cl)c(Br)c1[N+](=O)[O-] | 132 to 134
20 | COCCNC(=O)c1ccc(C(=O)NS(=O)(=O)c2ccc(CCNC(=O)CCc3ccc(OC)c(OC)c3)cc2)cn1 | 87 to 89
21 | O=C(O)CCCCC=Cc1cn(-c2cccnc2)c2ccccc12 | 124 to 125
22 | COc1nc(C)cnc1NS(=O)(=O)c1ccccc1-c1ccc(CC(C)C)c([N+](=O)[O-])c1 | 114 to 115
23 | CC1(C)CN=C2N(C1)c1ccc(Br)cc1C21OCCCO1 | 151 to 153
24 | O=C1c2ccccc2C(=O)N1CC(O)c1cnc(-c2ccccc2)nc1-c1ccccc1 (stereo not drawn) | 149 to 159

Row | Structure (SMILES) | melting point [°C]
25 | Nc1nccn2nc(SCc3ccccc3)nc12 | 144 to 145
26 | CC(C)(C)c1cc(SCCc2nnc(N)o2)cc(C(C)(C)C)c1O | 172 to 174
27 | COC(=O)C(Cl)(Cl)Cc1c(Cl)cc(Cl)cc1Cl | 56 to 57
28 | CCOC(=O)C(=NOC)C1=CSc2ccccc2O1 | 78 to 80
29 | CCOC(=O)C=Cc1ccc(C=CC(=O)OCC)c2ccccc12 | 90 to 91
30 | CN(C)CC(O)C(c1ccccc1)c1ccccc1 (stereo not drawn) | 72 to 73
31 | Cc1cc(NC(=O)C(C)(O)COc2cc(Cl)cc(Cl)c2)ccc1[N+](=O)[O-] (stereo not drawn) | 141 to 143
32 | COC1=NS(=O)(=O)N(C)C(Cl)=N1 | 77 to 83
33 | COC(=O)C(Br)c1ccc(OCCCOc2ccc(Cl)cc2)cc1 (stereo not drawn) | 49 to 53
34 | O=C(Cl)c1c(Cl)c(Cl)c(Cl)c(Cl)c1CCl | 77 to 78
35 | NC(=O)c1cc(Cl)c(Cl)c(Cl)n1 | 169 to 170
36 | OC1CSC(Oc2ccc(-c3cc4ccccc4o3)nc2)C(O)C1O (stereo not drawn) | 195
37 | CON1C=C2N=NC3=C(N(CC(C)C)CC(C)=C3)N2C1 | 144 to 145
38 | CCCCCCCN1CCCc2cccc(O)c21 | 33 to 34
39 | COc1cccc2c1CCC2C(=O)O (stereo not drawn) | 117 to 118
40 | CC1(C)CCC(C(=O)N2CCC[C@H]2C(=O)O)C1SC(=O)c1ccccc1 (stereo partly drawn) | 187
41 | CCCC(CNC(=O)Cc1c(Cl)cncc1Cl)c1cccc(OC)c1 (stereo not drawn) | 97 to 98
42 | Cc1c(NC(=O)c2ccc(OCC3CCCO3)cc2)ccc2cc(CNC3CCC(O)CC3)cnc12 (stereo not drawn) | 155
43 | O=C(NCCO[N+](=O)[O-])C1COc2ccccc2O1 (stereo not drawn) | 69 to 71
44 | Nc1nc(O)c2c(n1)NCC(CCCCCC(=O)N[C@@H](CCC(=O)O)C(=O)O)C2 (stereo partly drawn) | 144
45 | Cc1c([N+](=O)[O-])ccc2[nH]ccc12 | 179 to 180
46 | Clc1nccnc1Oc1ccc(Oc2ccccc2)cc1 | 53 to 55
47 | NS(=O)(=O)c1ccc(NC(=O)c2ccccc2S)cc1 | 230 to 231

Other lines, results leading:

Row | melting point [°C] | Structure (SMILES)
48 | 226 to 228 | CCOC(=O)c1sc(-c2cc3cccc(NS(=O)(=O)c4cccs4)c3[nH]2)nc1C
49 | 208 | Cc1ccnc(C(=O)c2[nH]c3cc(F)ccc3c2CC(=O)O)c1
50 | 101 to 104 | CCN(CC)C(=O)OC12C(=O)c3ccccc3C1(O)Oc1cc(C(C)C)ccc12 (stereo not drawn)
51 | 123 to 124 | N#CCCNC(=O)c1cccc(-c2cccc3sc(Cc4ccc(F)c(F)c4)cc23)c1
52 | 40 to 41 | COC(=O)CCc1cnoc1-c1ccc(F)cc1F
53 | 40 to 45 | COc1ccc(C2=NN(c3ccc(OCCBr)cc3)C(=O)[C@@H]3CC=CC[C@H]23)cc1OC
54 | 82 | O=C1c2cc(Cl)ccc2NCN1CCN1CCOCC1
55 | 146 to 147 | CCOC(=O)c1cc2n(c1)CN(CCC#N)c1c(OC)cccc1-2
56 | 135 to 136 | CC(=O)CCS(=O)(=O)c1ccc(C=C(C)c2ccc3c(c2)C(C)(C)CCC3(C)C)cc1
57 | 131 to 132 | CCCc1nc2cc(C(=O)c3ccccc3)ccc2[nH]1
58 | 178 to 183 | CC(=O)OC=C1CSC2C(NC(=O)Cc3ccccc3)C(=O)N2C1C(=O)OC(C)(C)C (stereo not drawn)
59 | 95 to 105 | CC(C)(COc1ccc(CNC(=O)C2Cc3ccccc3N2S(=O)(=O)c2ccc(-c3cccc(C(F)(F)F)c3)cc2)cc1)C(=O)O (stereo not drawn)
60 | 166 to 167 | O=C(Nc1cc(C(F)(F)F)cc(C(F)(F)F)c1)[C@H]1CC=CC[C@H]1C(=O)O (relative stereo)
61 | 241 to 242 | C/N=C1\N(C)C(=O)C(=Cc2c[nH]c3ccccc23)N1C
62 | 210 to 214 | O=C1c2ccc([N+](=O)[O-])cc2COc2cc(Nc3ccc(F)cc3F)ccc21
63 | 121 | CS(=O)(=O)c1ccc(-c2cc(/C=C/CO)nn2C2CCCCC2)cc1
64 | 167 to 169 | COc1ccc2oc3ccc(C=O)cc3c(=O)c2c1
65 | 134 to 135 | FC(F)(F)c1ccc(-c2cc3[nH]ccn3n2)cc1
66 | 165 | CN(C)CCCC(=O)N1CCOc2cc3ncc(C#N)c(Nc4ccc(F)c(Cl)c4)c3cc21

Row | melting point [°C] | Structure (SMILES)
67 | 103 to 104 | CCCCn1c(=O)c2cn(S(C)(=O)=O)nc2n(CCCC)c1=O
68 | 107 | O=S(=O)(c1ccc(Cl)cc1)N1CCCC1c1ccc(C(F)(F)F)cc1 (racemic)
69 | 136 to 140 | COc1ccc(C(=O)Cn2c(-n3ccc(N)n3)nc3ccccc32)cc1
70 | 251 to 252 | Cc1nc2cccc(Cn3ccc4cc(Cl)ccc43)c2c(=O)[nH]1
71 | 130 to 131 | Cn1ccnc1Sc1cc(Cl)ccc1[N+](=O)[O-]
72 | 118 to 122 | CN(C)C1CCC2c3ccccc3Sc3ccc(C(F)(F)F)cc3N2C1 (stereo not drawn)
73 | 193 | O=c1cc(C(F)(F)F)[nH]n1-c1ccccc1
74 | 195 to 196 | CCCCn1cc(N)c(=O)c2cnc(-c3ccncc3)nc21
75 | 176 | Cc1cc2ncc(-c3cccc(C(F)(F)F)c3)c(N)n2n1
76 | 102 to 108 | CS(=O)(=O)c1ccc(-c2cc(CCO)sc2-c2ccc(F)cc2)cc1
77 | 145 to 146 | CC(C)(CC(O)(Cn1ccc2c1CCCC2=O)C(F)(F)F)c1cccc2c1OCC2 (stereo not drawn)
78 | 121 to 122 | COC(=O)c1cc(NC(C)C)c2cc(Cc3ccc(F)cc3)cnc2c1O
79 | 221 to 222 | CC1Cc2cccc3c4oc(=O)c(Br)c(O)c4c(=O)n1c23 (stereo not drawn)
80 | 201 to 202 | Cn1c(C(F)(F)F)cc(=O)n(-c2ccc3snc(CF)c3c2)c1=O
81 | > 280 | CN1C(=O)Nc2c(Cl)cc(Cl)cc2C12NC(=O)NC2=O (stereo not drawn)
82 | 118 to 125 | CCN(Cc1c(F)cccc1Cl)c1c([N+](=O)[O-])cc(C(F)(F)F)c(Cl)c1[N+](=O)[O-]
83 | 87.5 to 88.5 | CC(C)c1cccc(NC(=O)c2ccccc2C(F)(F)F)c1
84 | 82 to 84 | CC1(C)CC(=O)C(C)(C)c2cc(C=O)ccc21
85 | 90 to 94 | COCCn1nnnc1-c1cc(-c2cc(C(F)(F)F)ccc2F)c(O)cc1O

Row | melting point [°C] | Structure (SMILES)
86 | 33 to 35 | Nn1cccc1C(=O)C(F)(F)F
87 | 120 to 122 | COc1cc(Cl)nnc1NS(=O)(=O)c1ccc(Cl)s1
88 | 112 | CC(C)(C)OC(=O)c1ccc(C(=O)N[C@H]2CN3C(=O)N(c4cc(Cl)cc(Cl)c4)C(=O)[C@@]3(Cc3ccc(Br)cc3)C2)cc1
89 | 225 to 230 | COc1ccc2c(Cc3c(Cl)cncc3Cl)nnc(-c3nccs3)c2c1
90 | 212 to 213 | CC(C)n1nc(-c2cc(-c3ccn[nH]3)cnc2-c2ccccc2)ccc1=O
91 | 204 to 205 | CC(C)(CO)c1cc2c(cc1Cl)C=C(C(=O)O)C(C(F)(F)F)O2 (stereo not drawn)
92 | 264 to 266 | COC(=O)c1cc(=O)c2cc(SC)ccc2[nH]1
93 | 153 to 154 | N#CCCNC(=O)c1cccc(-c2ccc3ccn(Cc4ccc(Cl)cc4Cl)c3c2)c1
94 | 125 to 126 | CCOC(=O)c1cn(Cc2ccccc2)nc1NC(=O)N(C)C
95 | 185 | CNc1ccc2cnc(S(C)=O)nc2n1 (stereo not drawn)
96 | 163 to 164 | Cc1ccc(S(=O)(=O)N2Cc3c(C)sc(C)c3C2)cc1
97 | 154 to 155 | COc1c2oc(C)cc2cc2c(C)cc(=O)oc12
98 | 128 to 130 | CCn1ncc2c(Cl)c3c(nc21)C(O)c1ccccc1CC3 (stereo not drawn)
99 | 57 to 59 | OCc1c(C(F)(F)F)nn(-c2ccccc2)c1OC(F)F
100 | 299 to 300 | O=C1NC(=O)c2ccc(Br)cc2/C1=C/NCc1cccnc1
101 | 188 to 190 | CCOC(=O)c1cc2c(cn1)[nH]c1ccc(N)c(N3CCCCC3)c12
102 | 44 to 45 | CCOC(=O)C(Oc1ccc(-c2ccc(Cl)cc2)cc1)(C(F)(F)F)C(F)(F)F
103 | 75.3 | COC(=O)COc1ncccc1Oc1cc(N2C(=O)C=C(C(F)(F)F)CC2=O)c(F)cc1Cl

Reference: a melting point compilation (Tetko et al.; mined from patent text by program, amines drawn as free bases though some values may be those of a salt)
